Values quoted from earlier work as cited in US20080175908A1, “TABLET-IN-TABLET COMPOSITIONS” (Wyeth, priority 2007, published 2008).

What was measured:
[1] = system: uterine response; settings: preclinical models of uterine stimulation
[2] = system: ovariectomized rat model of osteopenia
[3] = system: MCF-7 cell line (human breast cancer cell line)

Q: What does the source list for `Cc1c(-c2ccc(O)cc2)n(Cc2ccc(OCCN3CCCCCC3)cc2)c2ccc(O)cc12` [bazedoxifene acetate, 1-[4-(2-azepan-1-yl-ethoxy)-benzyl]-2-(4-hydroxy-phenyl)-3-methyl-1H-indol-5-ol acetic acid]?
A: stimulation of uterine response [1]: little or no stimulation of uterine response; prevention of bone loss [2]: estrogen agonist-like effect in preventing bone loss; reduction of cholesterol [2]: reducing cholesterol; estrogen antagonist behaviour [3]: behaves as an estrogen antagonist
